Values of other authors as cited in US6555712B2, “Process for the preparation of diorganotrisulfide” (Indian Institute of Technology, priority 2001, dated 2003).
Where two headings read alike, the source gives them in different places.

What was measured:
[1] = tested on: Trypanosoma brucei brucei, T.b. rhodesiense, T.b. gambiense, T. evansi, T. congolense and T. equiperdum; details: in vitro; one range for six Trypanosoma species
Entamoeba histolytica = details: in vitro
Giardia Lamblia = details: in vitro
[2] = tested on: MASEF, Mastomys natalensis embryo fibroblast; details: MASEF cell line, in vitro
[3] = tested on: HEFL-12, human embryo fibroblast; details: HEFL-12 cell line, in vitro
[4] = tested on: whole blood platelet-aggregation; details: DATS present in the steam-distilled component of garlic extract
[5] = tested on: canine mammary tumor cells (CMT-13)
[6] = tested on: human neoplastic (A549) lung cells; details: 10 micromolar
[7] = tested on: human nonneoplastic (MRC-5) lung cells; details: 10 microM
[8] = tested on: intracellular Ca2+ in A549 cells
[9] = tested on: cultured human neoplastic (A549) lung cells; details: 1 microM for 24 hours
macrophages [10] = details: 1-100 micrograms/ml
[11] = tested on: tumor derived immunosuppressive factors produced by S180 cells and Ehrlich ascitic cancer cells
macrophages [12] = tested on: macrophages
[13] = tested on: Sitophilus zeamais (Motschulsky)
[14] = tested on: Tribolium castaneum (Herbst); set-up: egg hatching: dose or concentration left out as unconfirmed

C=CCSSSCC=C [DATS, Diallyltrisulfide]
IC50 (concentration which inhibits metabolism or growth of parasites by 50%) [1]: 0.8-5.5 micrograms/ml | IC50 (concentration which inhibits metabolism or growth of parasites by 50%) (Entamoeba histolytica): 59 micrograms/ml | IC50 (concentration which inhibits metabolism or growth of parasites by 50%) (Giardia Lamblia): 14 micrograms/ml | maximum tolerated concentration [2]: 25 micrograms/ml | maximum tolerated concentration [3]: 25 micrograms/ml | Inhibition of whole blood platelet-aggregation [4]: high | growth of canine mammary tumor cells (CMT-13) [5]: markedly inhibits | reduction of A549 growth [6]: 47% | MRC-5 cell growth [7]: did not alter | intracellular Ca2+ in A549 cells ([8]; 10 microM, during the first four hours after treatment): marked and progressive increase | intracellular Ca2+ in A549 cells after refeeding the medium without DATS ([8]; after refeeding medium without DATS): returned to near control levels within one hour | apoptosis, as indicated by increased DNA fragmentation [9]: significantly induced apoptosis | effect on activation of T lymphocytes by Con A (T lymphocytes; 3.125-12.5 micrograms/ml): augmented | effect on T cell activation (T lymphocytes; high concentration (50 micrograms/ml)): inhibitory effect | production of NO by macrophages (macrophages [10]): can inhibit | inhibition by tumor derived immunosuppressive factors of the activation of T cells (inhibitory rate) [11]: reduce the inhibitory rate significantly | production of hydrogen peroxide (H2O2) by macrophages (macrophages [12]): enhance | feeding deterrence index ([13]; S. zeamais adults, 2.98 mg/g food): 27% | contact and fumigant toxicities ([13]; S. zeamais adults, comparison with methylallyl disulfide): greater than that of methylallyl disulfide | nutritional indices ([13]; all of the insects tested (S. zeamais)): significantly reduced | egg hatching ([14]; T. castaneum): totally suppressed | feeding deterrence ([14]; T. castaneum adults, 0.75 mg/g food): 85% | contact and fumigant toxicities ([14]; T. castaneum adults, comparison with methylallyl disulfide): greater than that of methylallyl disulfide | feeding deterrence index ([14]; T. castaneum larvae, 2.98 mg/g food): 51% | larval and adult emergence ([14]; T. castaneum, at 0.08 mg/cm2): totally suppressed | nutritional indices ([14]; all of the insects tested (T. castaneum)): significantly reduced

C=CCSSC [Methylallyl disulfide, methylallyl disulfide, reference compound]
growth rate, food consumption, and food utilization of adults ([13]; S. zeamais adults): significantly decreased | feeding deterrence index ([13]; S. zeamais adults, 6.08 mg/g food): 44% | growth rate, food consumption, and food utilization of adults ([14]; T. castaneum adults): significantly decreased | feeding deterrence index ([14]; T. castaneum adults, 1.52 mg/g food): 44% | nutritional indices of T. castaneum larvae ([14]; T. castaneum larvae): did not affect
